Square brackets hold non-standard residues; d marks the D form. Peptide text beside a SMILES is read from it. Hyp = O=C(O)[C@@H]1C[C@@H](O)CN1; pGlu = O=C1CC[C@@H](C(=O)O)N1
Tests used:
[1] = biological target: T1, D. melanogaster sex peptide receptor (SPR) (Drosophila melanogaster, UniProt Q8SWR3); assay: Ligand-mediated receptor activation, CHO-K1 cells expressing aequorin; format: cell-based; conditions: D. melanogaster SPR in CHO cells with aequorin and Gαqi; up to 10 μM; n = 4
T1 construct: expressed in transfected cells; host or cells: CHO-K1 cells co-expressing aequorin and chimaeric G-protein Gαqi
T1 sequence (Q8SWR3 1-435): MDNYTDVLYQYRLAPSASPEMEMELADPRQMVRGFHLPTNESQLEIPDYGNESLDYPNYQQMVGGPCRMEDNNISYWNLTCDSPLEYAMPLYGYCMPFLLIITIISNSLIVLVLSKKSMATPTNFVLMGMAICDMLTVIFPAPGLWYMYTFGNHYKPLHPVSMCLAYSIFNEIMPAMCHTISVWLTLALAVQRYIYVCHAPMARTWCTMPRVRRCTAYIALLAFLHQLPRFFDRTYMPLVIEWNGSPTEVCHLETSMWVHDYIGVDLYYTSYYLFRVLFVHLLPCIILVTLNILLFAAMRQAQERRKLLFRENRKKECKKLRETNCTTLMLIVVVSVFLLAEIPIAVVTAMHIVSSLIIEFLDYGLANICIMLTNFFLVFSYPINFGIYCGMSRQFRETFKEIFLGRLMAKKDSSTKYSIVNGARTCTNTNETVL
Method: (§1) Ligand-mediated receptor activation was measured using an established expression system employing CHO-K1 cells expressing the Ca^2+ reporter aequorin [42]. The construction of the expression constructs for D. melanogaster sex peptide receptor (SPR) and A. aegypti SPR and the measurement of the luminescent signals have been reported previously.
(§2) Fig. 6 Aea-HP-1 is not an active agonist for SPRs from D. melanogaster (A) and A. aegypti (B). Luminescent responses of CHO cells expressing SPR, aequorin and a chimaeric G-protein, Gαqi, and treated with varying concentrations of Aea-HP-1 and SP. Each data point is mean ± s.d. (n = 4).

A. aegypti SPR = assay: as above; format: cell-based, Aedes aegypti; conditions: A. aegypti SPR in CHO cells with aequorin and Gαqi; up to 10 μM; n = 4
Method: as §1, §2

[2] = system: virgin D. melanogaster females; assay: Post-mating response (receptivity) after injection into virgin females; format: in vivo, Drosophila melanogaster; conditions: injected into the hemocoel of virgin D. melanogaster females; receptivity assayed 5 h after injection with naive Canton-S males
Method: Injections of either Aea-HP-1 or SP into the abdomen of virgin D. melanogaster females were performed as described previously. After injection, females were transferred to individual food vials and were tested after 5 h for receptivity with a naive Canton S male.
Receptivity of virgin females assayed 5 h after injection with either synthetic peptides (Aea-HP-1 or SP) or Ringer's solution alone. Wild type W1118 females were injected and assayed with naïve Canton-S males. Numbers in parenthesis indicate numbers of animal assayed. n.s., p > 0.05; ***p < 0.0001, one-way ANOVA (Tukey post-test) compared with Ringer treatment.

[3] = system: virgin A. aegypti females; assay: Mating rejection after injection into the hemocoel of virgin females; format: in vivo, Aedes aegypti; conditions: 0.1–1 μg injected into the hemocoel of virgin A. aegypti females; data not presented
Description: Transplantation of MAGs, or injection of gland extracts, into female A. aegypti can elicit a variety of post-mating responses including refractoriness to re-mating and inhibition of host-seeking and biting behavior [13]. […] This failure might be due to lack of accessibility and the known rapid catabolism of Aea-HP-1 in the hemolymph. D. melanogaster SP has wide-ranging effects on physiology and behavior some of which are mediated primarily through activation of the SP/MIP receptor that is expressed in sensory neurons of the uterus. The D. melanogaster SP receptor and its A. aegypti orthologue are also strongly activated by myoinhibitory peptides (MIPs), a family of peptides that are found in species from different insect orders and are considered to be the ancestral ligands for these receptors [[19,33,41]]. The receptors are also activated by unidentified ligands present in whole body extract of adult A. aegypti. Although Aea-HP-1 has no obvious structural similarity to either SP or MIP, the promiscuity of the SP/MIP receptor led us to consider the possibility that the head peptide might also be an agonist of the MIP receptor.

[4] = design: species or system Aedes aegypti; conditions: in vivo
Method: Tissues were dissected from adult mosquitoes in phosphate buffered saline (PBS, MP Biomedicals, Cambridge, UK) and collected into acidified methanol (86%, v/v, aqueous methanol and 5% v/v glacial acetic acid). MAGs and male seminal vesicles (SVs) (5 pairs per 100 μl) were typically prepared for analysis by infusing whole tissues in acidified methanol for 30 min, then centrifuging for 10 min at 13,000 rpm in a bench-top microcentrifuge, retaining the supernatant. Homogenization was avoided to provide a cleaner sample for analysis. […]
Mosquito tissues were analyzed for Aea-HP-1 by subjecting either acidified methanol extracts or intact tissues to MALDI/TOF-MS analysis. […]
MALDI/TOF-MS was used to analyze methanol extracts for the presence of Aea-HP-1 in the reproductive tract (uterus, spermathecae, bursa copulatrix, oviduct, but not the ovary) of individual virgin and post-mated females obtained by introducing a single female into a cage of 50 males until mating was observed (<5 min). […] In contrast, the molecular ions for Aea-HP-1 (m/z, 1227.9) and Aea-HP-3 (m/z, 1211.9) were detected in methanol extracts of tissues from nine out of thirteen post-copulated females. Extracts were also analyzed quantitatively by ELISA using synthetic Aea-HP-1 as a standard and the results were compared to the amount of material found in extracts of MAGs dissected from virgin males. […]

[5] = mosquito hemolymph, after 30 min; cited from earlier work
Description: (§3) Aea-HP-1 has been tested for myogenic and behavior modifying activity in A. aegypti.

[6] = system: isolated oviduct and hindgut of female mosquitoes; conditions: female A. aegypti tissues; cited from earlier work
Description: as §3

non-öogenic females = conditions: cited from earlier work
Description: as §3

CC(C)C[C@H](NC(=O)[C@H](CO)NC(=O)[C@@H]1C[C@@H](O)CN1C(=O)[C@@H]1CCCN1C(=O)[C@H](CCCNC(=N)N)NC(=O)[C@@H]1CCC(=O)N1)C(=O)N[C@@H](CCCCN)C(=O)N[C@H](C(=O)N[C@@H](CCCNC(=N)N)C(=O)N[C@@H](Cc1ccccc1)C(N)=O)[C@@H](C)O [Aea-HP-1, pERPhPSLKTRFamide] ([pGlu]RP[Hyp]SLKTRF-NH2)
activation of SP/MIP receptor (luminescent response) [1]: did not activate
activation of SP/MIP receptor (luminescent response) (A. aegypti SPR): did not activate
rejection of male advances (post-mating response) [2]: did not elicit rejection of male advances
induction of mating rejection [3]: not been able to show that Aea-HP-1 can induce mating rejection
persistence in the female reproductive tract after copulation [4]: less than 2 h
peptide remaining in the circulation [5]: around 17%
stimulation of contractions of isolated oviduct and hindgut [6]: did not stimulate contractions
effect on host-seeking behavior (non-öogenic females; injected into female A. aegypti): inhibiting host-seeking behavior
duration of reduction in host-seeking (non-öogenic females; injected into non-öogenic female A. aegypti): up to 5 h

Reference: article PMC3368272, “The host-seeking inhibitory peptide, Aea-HP-1, is made in the male accessory gland and transferred to the female during copulation” (Peptides, 2012)
